Measured values: ChEMBL document CHEMBL4673379 (ACS Med Chem Lett, 2021)

Assays:
[1] = Selectivity index, ratio of CC50 for human HEL cells to EC50 for antiviral activity against thymidine kinase positive Varicella zoster virus OKA infected in human HEL cells; type: toxicity, cell-based; conditions: read-out: Ratio CC50/EC50
[2] = tested on: Human alphaherpesvirus 3; assay: Antiviral activity against thymidine kinase positive Varicella zoster virus OKA infected in human HEL cells assessed as reduction in virus plaque formation measured on day 5 post-viral infection; type: functional, organism-based; conditions: Human alphaherpesvirus 3, OKA, 120 h
[3] = Selectivity index, ratio of CC50 for human HEL cells to EC50 for antiviral activity against thymidine kinase deficient Varicella zoster virus 07-1 infected in human HEL cells; type: toxicity, cell-based; conditions: read-out: Ratio CC50/EC50
[4] = tested on: Human alphaherpesvirus 3; assay: Antiviral activity against thymidine kinase deficient Varicella zoster virus 07-1 infected in human HEL cells assessed as reduction in virus plaque formation measured on day 5 post-viral infection; type: functional, organism-based; conditions: Human alphaherpesvirus 3, 07-1, HEL, 120 h
[5] = tested on: HEL; assay: Cytotoxicity against human HEL cells assessed as reduce in cell growth incubated for 3 days by coulter counter analysis; type: cell-based; conditions: 72 h, time 3 day
[6] = Cytotoxicity against human HEL cells assessed as alteration in cell morphology incubated for 3 days by microscopic analysis; type: cell-based; conditions: time 3 day
[7] = tested on: SARS-CoV-2; assay: Antiviral activity against SARS-CoV-2 UC-1075 infected in African green monkey Vero cells assessed as reduction in virus plaque formation measured on day 5 post-viral infection by microscopic analysis; type: functional, organism-based; conditions: Severe acute respiratory syndrome coronavirus 2, UC-1075, Vero, 120 h
[8] = tested on: Vero; assay: Cytotoxicity against African green monkey Vero cells assessed as reduction in cell growth by coulter counter analysis; type: cell-based; conditions: chlorocebus sabaeus
[9] = tested on: Human betaherpesvirus 5; assay: Antiviral activity against Human cytomegalovirus AD169 infected in human HEL cells assessed as reduction in virus plaque formation measured on day 6 to 7 post-viral infection; type: functional, cell-based; conditions: Human betaherpesvirus 5, AD169, HEL, 144 h
[10] = Cytotoxicity against African green monkey Vero cells assessed as alteration in cell morphology by microscopic analysis; type: cell-based; conditions: chlorocebus sabaeus
[11] = tested on: SARS-CoV-2; assay: Antiviral activity against SARS-CoV-2 UC-1074 infected in African green monkey Vero cells assessed as reduction in virus plaque formation measured on day 5 post-viral infection by microscopic analysis; type: functional, organism-based; conditions: Severe acute respiratory syndrome coronavirus 2, UC-1074, Vero, 120 h
[12] = tested on: Human betaherpesvirus 5; assay: Antiviral activity against Human cytomegalovirus Davis infected in human HEL cells assessed as reduction in virus plaque formation measured on 6 to 7 post-viral infection; type: functional, cell-based; conditions: Human betaherpesvirus 5, Davis
[13] = tested on: rhinovirus A1B; assay: Antiviral activity against Human rhinovirus 1B infected in human HeLa cells assessed as inhibition of virus-induced cytopathicity measured after 2 days by SRB method; type: functional, organism-based; conditions: Rhinovirus A, 48 h
[14] = tested on: Influenza A virus; assay: Antiviral activity against Influenza A virus (A/Puerto Rico/8/34(H1N1)) expressing NS116-GFP infected in human RPE cells assessed as inhibition of viral replication measured after 24 hrs by luminescence based assay; type: functional, organism-based; conditions: A/Puerto Rico/8/1934(H1N1), HRPE
[15] = tested on: Hepatitis C virus; assay: Antiviral activity against Hepatitis C virus assessed as inhibition of viral replication incubated for 3 days by Renilla luciferase based assay; type: functional, organism-based, Hepacivirus hominis; conditions: 72 h
[16] = tested on: Middle East respiratory syndrome-related coronavirus; assay: Antiviral activity against MERS-CoV Hu/Jordan-N3/2012 infected in African green monkey Vero E6 cells assessed as inhibition of viral replication treated for 1 hr prior to viral infection and measured after 48 hrs by ELISA; type: functional, organism-based; conditions: Hu/Jordan-N3/2012, Vero C1008
[17] = tested on: Human immunodeficiency virus 1; assay: Antiviral activity against HIV-1 infected in HEK293T cells assessed as inhibition of viral replication treated with compound 2 hrs prior to viral infection and measured after 24 hrs by flow cytometry; type: functional, organism-based; conditions: Human immunodeficiency virus 1, HEK-293T
[18] = tested on: Zika virus; assay: Antiviral activity against Zika virus infected in human RPE cells assessed as inhibition of virus-induced cytopathic effect measured at 48 hrs post-viral infection by CellTiter Glo assay; type: functional, organism-based; conditions: HRPE
[19] = tested on: Enterovirus C; assay: Antiviral activity against Polio virus Mahoney infected in human HeLa cells assessed as inhibition of viral replication incubated for 2 days by luminescence analysis; type: functional, organism-based; conditions: 48 h
[20] = tested on: SARS-CoV-2; assay: Antiviral activity against SARS-CoV-2 infected in African green monkey Vero E6 cells assessed as reduction in viral RNA copy number incubated for 24 hrs by real time RT-PCR analysis; type: functional, organism-based; conditions: Severe acute respiratory syndrome coronavirus 2, Vero C1008, 24 h
[21] = tested on: SARS-CoV-2; assay: Antiviral activity against SARS-CoV-2 infected in African green monkey Vero cells assessed as reduction in virus plaque formation measured on day 5 post-viral infection by microscopic analysis relative to remdesivir; type: functional, Severe acute respiratory syndrome coronavirus 2; conditions: time 5 day
[22] = Selectivity index, ratio of CC50 for African green monkey Vero cells to EC50 for antiviral activity against SARS-CoV-2 UC-1075 infected in African green monkey Vero cells; type: toxicity; conditions: read-out: Ratio CC50/EC50

Work on `O=c1[nH]c(=O)n([C@H]2C[C@H](O)[C@@H](CO)O2)cc1/C=C/Br` [BRIVUDINE] yielded a selectivity ratio [1] of over 8330, an EC50 [2] of 36 nM and a selectivity ratio [3] of over 49. For the same compound, the EC50 [4] was 6040 nM, the CC50 [5] was over 300000 nM and the MCC at 72 h [6] was over 300 µM.
With `CO[C@]1(COP(=O)(N[C@@H](C)C(=O)OCc2ccccc2)Oc2ccccc2)O[C@@H](n2ccc(N)nc2=O)C(F)(F)[C@@H]1O` (stereo not given in full) the EC50 [7] was at least 55100 nM, the EC50 [2] was over 100000 nM and the CC50 [8] was at least 93600 nM. It also gave an EC50 [9] of over 100000 nM, an MCC [10] of at least 100 µM and an EC50 [11] of over 100000 nM. It also gave an EC50 [4] of over 100000 nM, an MCC at 72 h [6] of over 100 µM and an EC50 [12] of over 100000 nM.
`Nc1ccn([C@@H]2O[C@H](CO)[C@@H](O)C2(F)F)c(=O)n1` [GEMCITABINE] gave an EC50 [7] of over 1.6 nM, an EC50 [2] of 28 nM and an EC50 [13] of 810 nM. It also gave an EC50 [14] of 68 nM, a CC50 [8] of 4.3 nM and an EC50 [9] of 74 nM. It also gave an MCC [10] of 0.008 µM, an EC50 [15] of 12 nM and an EC50 [11] of over 3.2 nM. The EC50 [16] was 1220 nM, the EC50 [4] was 54 nM and the EC50 [17] was 16.3 nM. The EC50 [18] was 10 nM, the CC50 [5] was 3.6 nM and the IC50 [19] was 300 nM. It also gave an MCC at 72 h [6] of 20 µM, an EC50 [20] of 1240 nM and an EC50 [12] of 53 nM.
In the case of `CO[C@]1(CO)O[C@@H](n2ccc(N)nc2=O)C(F)(F)[C@@H]1O`, the EC50 [7] is reported as at least 86200 nM, the EC50 [2] is reported as over 100000 nM and the CC50 [8] is reported as over 100000 nM. The EC50 [9] was over 100000 nM, the MCC [10] was over 100 µM and the EC50 [4] was over 100000 nM. For the same compound, the MCC at 72 h [6] was over 100 µM and the EC50 [12] was over 100000 nM.
In the case of `Nc1ccn(C[C@@H](CO)OCP(=O)(O)O)c(=O)n1` [CIDOFOVIR], the EC50 [9] is reported as 650 nM, the MCC at 72 h [6] is reported as 300 µM and the EC50 [12] is reported as 340 nM.
With `Nc1nc2c(ncn2COCCO)c(=O)[nH]1` [ACYCLOVIR] the CC50 [5] was 424000 nM and the MCC at 72 h [6] was over 440 µM.
`C[C@H](NP(=O)(OC[C@@]1(F)O[C@@H](n2ccc(N)nc2=O)C(F)(F)[C@@H]1O)Oc1ccccc1)C(=O)OCc1ccccc1` (stereo not given in full) gave a selectivity ratio [1] of 36, a Ratio [21] of 10 and an EC50 [7] of 730 nM. The EC50 [2] was 2320 nM, the selectivity ratio [22] was under 2 and the CC50 [8] was 1440 nM. The EC50 [9] was 15500 nM, the MCC [10] was 4 µM and the selectivity ratio [3] was 29. For the same compound, the EC50 [11] was at least 2400 nM, the EC50 [4] was 2840 nM and the CC50 [5] was 84400 nM. The MCC at 72 h [6] was over 100 µM and the EC50 [12] was 4000 nM.
`Nc1nc(O)c2ncn(COC(CO)CO)c2n1` [GANCICLOVIR] showed an MCC at 72 h [6] of 350 µM.
Work on `O=c1ccn([C@@H]2O[C@](F)(CO)[C@@H](O)C2(F)F)c(=O)[nH]1` yielded an EC50 [2] of over 100000 nM, an EC50 [9] of over 100000 nM and an EC50 [4] of over 100000 nM. It also gave an MCC at 72 h [6] of over 100 µM and an EC50 [12] of over 100000 nM.
Compound `CCN(CCO)CCCC(C)Nc1ccnc2cc(Cl)ccc12` (stereo not given) [HYDROXYCHLOROQUINE] has an EC50 [7] of 1740 nM, a CC50 [8] of 36900 nM and an MCC [10] of 100 µM. It also gave an EC50 [11] of 8100 nM.
Compound `Nc1ccn([C@@H]2O[C@](F)(CO)[C@@H](O)C2(F)F)c(=O)n1` has a selectivity ratio [1] of 2, a Ratio [21] of 20 and an EC50 [7] of 96 nM. For the same compound, the EC50 [2] was 42 nM, the selectivity ratio [22] was 2 and the CC50 [8] was 260 nM. The EC50 [9] was 815 nM, the MCC [10] was 0.16 µM and the selectivity ratio [3] was under 1. The EC50 [11] was 360 nM, the EC50 [4] was 166 nM and the CC50 [5] was 110 nM. For the same compound, the MCC at 72 h [6] was 20 µM and the EC50 [12] was 930 nM.
For `C[C@H](NP(=O)(OC[C@H]1O[C@@H](n2ccc(N)nc2=O)C(F)(F)[C@@H]1O)Oc1ccccc1)C(=O)OCc1ccccc1` (stereo not given in full) [FOSGEMCITABINE PALABENAMIDE], the selectivity ratio [1] was 4, the EC50 [7] was over 12.8 nM and the EC50 [2] was 74 nM. It also gave a CC50 [8] of 20 nM, an EC50 [9] of 66 nM and an MCC [10] of 0.048 µM. The selectivity ratio [3] was 3, the EC50 [11] was over 32 nM and the EC50 [4] was 89 nM. For the same compound, the CC50 [5] was 340 nM, the MCC at 72 h [6] was over 100 µM and the EC50 [12] was 32 nM.
Compound `CO[C@]1(CO)O[C@@H](n2ccc(=O)[nH]c2=O)C(F)(F)[C@@H]1O` has an EC50 [2] of over 100000 nM, an EC50 [9] of over 100000 nM and an EC50 [4] of over 100000 nM. It also gave an MCC at 72 h [6] of over 100 µM and an EC50 [12] of over 100000 nM.
For `CCC(CC)COC(=O)[C@H](C)N[P@](=O)(OC[C@H]1O[C@@](C#N)(c2ccc3c(N)ncnn23)[C@H](O)[C@@H]1O)Oc1ccccc1`, the EC50 [7] was 1520 nM, the CC50 [8] was over 40000 nM and the MCC [10] was over 40 µM. It also gave an EC50 [11] of 5800 nM.
